Test results: the NIST ThermoML archive (doi:10.1021/je4001697)

Details: Liquid, Pulse-echo method

Cc1ccccc1 [toluene]
Details	speed of sound [m/s]
340 K, 103.2 kPa	1128.5
340 K, 1103.7 kPa	1134.9
340 K, 1104.1 kPa	1134.9
340 K, 2104.3 kPa	1141.2
340 K, 2104.9 kPa	1141.2
340 K, 3105 kPa	1147.5
340 K, 3105.8 kPa	1147.5
340 K, 4105.8 kPa	1153.6
340 K, 4106.6 kPa	1153.6
340 K, 5107.2 kPa	1159.7
340 K, 6107.7 kPa	1165.7
340 K, 7108.4 kPa	1171.7
340 K, 8109.1 kPa	1177.5
340 K, 9109.7 kPa	1183.4
340 K, 10110 kPa	1189.1
340 K, 12612 kPa	1203.2
340 K, 15114 kPa	1217
340 K, 17615 kPa	1230.4
340 K, 20117 kPa	1243.5
340 K, 25120 kPa	1268.8
340 K, 30124 kPa	1293.1
340 K, 35128 kPa	1316.4
340 K, 40131 kPa	1338.9
340 K, 45135 kPa	1360.6
340 K, 50139 kPa	1381.6
340 K, 60146 kPa	1421.7
340 K, 70153 kPa	1459.5
340 K, 80160 kPa	1495.4
340 K, 90166 kPa	1529.6
340 K, 100174 kPa	1562.3
359.99 K, 10111 kPa	1114.3
359.99 K, 12613 kPa	1129.7
359.99 K, 15114 kPa	1144.6
359.99 K, 17616 kPa	1159.1
359.99 K, 20117 kPa	1173.3
359.99 K, 25121 kPa	1200.5
359.99 K, 30124 kPa	1226.4
359.99 K, 35128 kPa	1251.3
359.99 K, 40131 kPa	1275.1
359.99 K, 45134 kPa	1298.1
359.99 K, 50138 kPa	1320.2
359.99 K, 60145 kPa	1362.3
359.99 K, 70152 kPa	1402
359.99 K, 80159 kPa	1439.4
359.99 K, 90166 kPa	1475
359.99 K, 100173 kPa	1508.9
360 K, 103.4 kPa	1047.6
360 K, 1104.1 kPa	1054.7
360 K, 2104.8 kPa	1061.7
360 K, 3105.4 kPa	1068.6
360 K, 4106.4 kPa	1075.4
360 K, 5107 kPa	1082.1
360 K, 6107.4 kPa	1088.7
360 K, 7108 kPa	1095.2
360 K, 8108.7 kPa	1101.7
360 K, 9109.5 kPa	1108
360 K, 10110 kPa	1114.3
360 K, 12612 kPa	1129.7
380 K, 101.06 kPa	968.43
380 K, 1102.5 kPa	976.37
380 K, 2103.4 kPa	984.15
380 K, 3104.1 kPa	991.81
380 K, 4105 kPa	999.34
380 K, 5105.7 kPa	1006.7
380 K, 6106.1 kPa	1014
380 K, 7106.8 kPa	1021.2
380 K, 8107.6 kPa	1028.3
380 K, 9108.3 kPa	1035.2
380 K, 10109 kPa	1042.1
380 K, 12611 kPa	1058.8
380 K, 15113 kPa	1075
380 K, 17615 kPa	1090.7
380 K, 20117 kPa	1106
380 K, 25120 kPa	1135.2
380 K, 30124 kPa	1162.9
380 K, 35127 kPa	1189.3
380 K, 40131 kPa	1214.5
380 K, 45134 kPa	1238.8
380 K, 50138 kPa	1262.1
380 K, 60144 kPa	1306.3
380 K, 70152 kPa	1347.7
380 K, 80159 kPa	1386.7
380 K, 90166 kPa	1423.6
380 K, 100173 kPa	1458.8
400 K, 603.01 kPa	894.98
400 K, 608.94 kPa	895.04
400 K, 1104.2 kPa	899.42
400 K, 2104.6 kPa	908.15
400 K, 3105.3 kPa	916.7
400 K, 4105.1 kPa	925.08
400 K, 4106 kPa	925.07
400 K, 5106.7 kPa	933.29
400 K, 6107.4 kPa	941.35
400 K, 7108 kPa	949.26
400 K, 8108.7 kPa	957.04
400 K, 9109.3 kPa	964.69
400 K, 10110 kPa	972.21
400 K, 12612 kPa	990.48
400 K, 15113 kPa	1008.1
400 K, 17615 kPa	1025
400 K, 20117 kPa	1041.5
400 K, 25120 kPa	1072.8
400 K, 30123 kPa	1102.4
400 K, 35127 kPa	1130.4
400 K, 40130 kPa	1157.1
400 K, 45134 kPa	1182.7
400 K, 50138 kPa	1207.2
400 K, 60144 kPa	1253.4
400 K, 70152 kPa	1296.5
400 K, 80158 kPa	1337
400 K, 90166 kPa	1375.3
400 K, 100173 kPa	1411.7
420 K, 1102.5 kPa	823.4
420 K, 2103.2 kPa	833.27
420 K, 3103.9 kPa	842.89
420 K, 4104.6 kPa	852.28
420 K, 5105.2 kPa	861.45
420 K, 6105.9 kPa	870.42
420 K, 7106.6 kPa	879.2
420 K, 8107.3 kPa	887.79
420 K, 9108 kPa	896.21
420 K, 10109 kPa	904.48
420 K, 12610 kPa	924.47
420 K, 15112 kPa	943.61
420 K, 17614 kPa	961.99
420 K, 20116 kPa	979.68
420 K, 25119 kPa	1013.3
420 K, 30123 kPa	1044.8
420 K, 35126 kPa	1074.5
420 K, 40130 kPa	1102.7
420 K, 45133 kPa	1129.5
420 K, 50137 kPa	1155.2
420 K, 60144 kPa	1203.5
420 K, 70151 kPa	1248.4
420 K, 80158 kPa	1290.4
420 K, 90165 kPa	1329.9
420 K, 100172 kPa	1367.4
